Measurements published in patent US20050043315A1, “Aminopyrimidine compounds, processes for their preparation and pharmaceutical compositions containing them” (priority 2002, published 2005).

| melting point [°C] | SMILES |
| --- | --- |
| 252 | Cn1nc(-c2cnc(N)nc2-c2ccsc2)ccc1=O [Example 245, 6-[2-Amino-4-(3-thienyl)-5-pyrimidinyl]-2-methyl-3(2H)-pyridazinone] |
| 171 | CC(C)n1nc(-c2cnc(N)nc2-c2ccccc2OCCF)ccc1=O [Example 210, 6-{2-Amino-4-[2-(2-fluoroethoxy)phenyl]-5-pyrimidinyl}-2-isopropyl-3(2H)-pyridazinone] |
| 260 | Cn1nc(-c2cnc(N)nc2-c2ccccc2O)ccc1=O (hydrate or solvate) [Example 224, 6-[2-Amino-4-(2-hydroxyphenyl)-5-pyrimidinyl]-2-methyl-3(2H)-pyridazinone] |
| 220 to 221.5 | CC(C)n1nc(-c2cnc(N)nc2-c2cccc(F)c2)ccc1=O [Example 21, 6-[2-Amino-4-(3-fluorophenyl)-5-pyrimidinyl]-2-isopropyl-3(2H)-pyridazinone] |
| 230 to 233 | COc1nc(N)nc(-c2ccccc2)c1-c1ccc(=O)n(C(C)C)n1 [Example 80, 6-(2-amino-4-methoxy-6-phenyl-5-pyrimidinyl)-2-isopropyl-3(2H)-pyridazinone] |
| 238 to 239 | CC(C)n1nc(-c2cnc(N)nc2-c2ccc(F)cc2)ccc1=O [Example 13, 6-[2-amino-4-(4-fluorophenyl)-5-pyrimidinyl]-2-isopropyl-3(2H)-pyridazinone] |
| 164 | CC(C)Oc1ccc(-c2nc(N)ncc2-c2ccc(=O)n(C(C)C)n2)cc1 [Example 194, 6-[2-Amino-4-(4-isopropoxyphenyl)-5-pyrimidinyl]-2-isopropyl-3(2H)-pyridazinone] |
| 97 | CC(C)CCOc1cccc(-c2nc(N)ncc2-c2ccc(=O)n(C(C)C)n2)c1 [Example 205, 6-{2-Amino-4-[3-(isopentyloxy)phenyl]-5-pyrimidinyl}-2-isopropyl-3(2H)-pyridazinone] |
| 163.5 to 165 | CC(C)n1nc(-c2cnc(N)nc2-c2cccc(C(F)(F)F)c2)ccc1=O [Example 25, 6-{2-Amino-4-[3-(trifluoromethyl)phenyl]-5-pyrimidinyl}-2-isopropyl-3(2H)-pyridazinone] |
| 213 to 216 | CC(C)n1nc(-c2c(OCCN)nc(N)nc2-c2ccccc2)ccc1=O [Example 104, 6-[2-amino-4-(2-aminoethoxy)-6-phenyl-5-pyrimidinyl]-2-isopropyl-3(2H)-pyridazinone] |
| 224 | Cc1ccc(-c2nc(N)ncc2-c2ccc(=O)n(C(C)C)n2)cc1 [Example 48, 6-[2-Amino-4-(4-methylphenyl)-5-pyrimidinyl]-2-isopropyl-3(2H)-pyridazinone] |
| 214 | Cc1cccc(-c2nc(N)ncc2-c2ccc(=O)n(C)n2)c1 [Example 71, 6-[2-Amino-4-(3-methylphenyl)-5-pyrimidinyl]-2-methyl-3(2H)-pyridazinone] |
| 198 | Cc1cccc(-c2nc(N)ncc2-c2ccc(=O)n(C(C)C)n2)c1 [Example 57, 6-[2-Amino-4-(3-methylphenyl)-5-pyrimidinyl]-2-isopropyl-3(2H)-pyridazinone] |
| 129 to 130.5 | CC(C)n1nc(-c2c(OCCF)nc(N)nc2-c2ccccc2)ccc1=O [Example 92, 6-[2-Amino-4-(2-fluoroethoxy)-6-phenyl-5-pyrimidinyl]-2-isopropyl-3(2H)-pyridazinone] |
| 258 to 260 | CC(C)n1nc(-c2c(N)nc(N)nc2-c2ccccc2)ccc1=O [Example 105, 6-(2,4-diamino-6-phenyl-5-pyrimidinyl)-2-isopropyl-3(2H)-pyridazinone] |
| 195 | CC(C)n1nc(-c2cnc(N)nc2-c2ccc(Cl)cc2)ccc1=O [Example 45, 6-[2-Amino-4-(4-chlorophenyl)-5-pyrimidinyl]-2-isopropyl-3(2H)-pyridazinone] |
| 213 to 215 | Cc1nc(N)nc(-c2ccccc2)c1-c1ccc(=O)n(C(C)C)n1 [Example 253, 6-(2-amino-4-methyl-6-phenyl-5-pyrimidinyl)-2-isopropyl-3(2H)-pyridazinone] |
| 260 | COc1cccc(OC)c1-c1nc(N)ncc1-c1ccc(=O)n(C(C)C)n1 [Example 243, 6-[2-Amino-4-(2,6-dimethoxyphenyl)-5-pyrimidinyl]-2-isopropyl-3(2H)-pyridazinone] |
| 234 | CC(C)n1nc(-c2cnc(N)nc2-c2ccsc2)ccc1=O [Example 242, 6-[2-Amino-4-(3-thienyl)-5-pyrimidinyl]-2-isopropyl-3(2H)-pyridazinone] |
| 213 | CC(C)n1nc(-c2cnc(N)nc2-c2cccs2)ccc1=O [Example 55, 6-(2-Amino-4-(2-thienyl)-5-pyrimidinyl]-2-isopropyl-3(2H)-pyridazinone] |

The next lines start with the compound.

| SMILES | melting point [°C] |
| --- | --- |
| CC(C)n1nc(-c2c(-c3ccccc3)nc(N)[nH]c2=S)ccc1=O [Example 141, 6-(2-amino-4-phenyl-6-thioxo-1,6-dihydro-5-pyrimidinyl)-2-isopropyl-3(2H)-pyridazinone] | 295 to 299 |
| COc1ccc(-c2nc(N(C)C)ncc2-c2ccc(=O)n(C)n2)cc1 [Example 247, 6-[2-(Dimethylamino)-4-(4-methoxyphenyl)-5-pyrimidinyl]-2-methyl-3(2H)-pyridazinone] | 165 |
| Cn1nc(-c2c(NCc3ccccn3)nc(N)nc2-c2ccccc2)ccc1=O [Example 146, 6-{2-amino-4-phenyl-6-[(2-pyridinylmethyl)amino]-5-pyrimidinyl}-2-methyl-3(2H)-pyridazinone] | 248 to 250 |
| CC(C)n1nc(-c2cnc(N(C(=O)c3ccc(F)cc3)C(=O)c3ccc(F)cc3)nc2-c2ccccc2)ccc1=O [Example 179, 4-Fluoro-N-(4-fluorobenzoyl)-N-[5-(1-isopropyl-6-oxo-1,6-dihydro-3-pyridazinyl)-4-phenyl-2-pyrimidinyl]benzamide] | 148 to 151 |
| C=CCNc1nc(N)nc(-c2ccccc2)c1-c1ccc(=O)n(C(C)C)n1 [Example 111, 6-[4-(Allylamino)-2-amino-6-phenyl-5-pyrimidinyl]-2-isopropyl-3(2H)-pyridazinone] | 191.5 to 192.5 |
| CC(C)n1nc(-c2cnc(N3CCOCC3)nc2-c2ccccc2)ccc1=O [Example 17, 2-isopropyl-6-[2-morpholino-4-phenyl-5-pyrimidinyl]-3(2H)-pyridazinone] | 200.5 to 202 |
| CSc1nc(N)nc(-c2ccc([S+](C)[O-])cc2)c1-c1ccc(=O)n(C(C)C)n1 (centres unmarked) [Example 152, 6-[2-amino-4-[4-(methylsulfinyl)phenyl]-6-(methylthio)-5-pyrimidinyl]-2-isopropyl-3(2H)-pyridazinone] | 221 to 223 |
| CC(C)n1nc(-c2c(NCCO)nc(N)nc2-c2ccccc2)ccc1=O [Example 114, 6-{2-amino-4-[(2-hydroxyethyl)amino]-6-phenyl-5-pyrimidinyl}-2-isopropyl-3(2H)-pyridazinone] | 221.5 to 223.5 |
| COc1nc(N)nc(-c2ccc(S(C)(=O)=O)cc2)c1-c1ccc(=O)n(C(C)C)n1 [Example 150, 6-{2-amino-4-methoxy-6-[4-(methylsulfonyl)phenyl]-5-pyrimidinyl}-2-isopropyl-3(2H)-pyridazinone] | 148 to 151 |
| CC(C)n1nc(-c2c(OC3CCC3)nc(N)nc2-c2ccccc2)ccc1=O [Example 83, 6-[2-Amino-4-(cyclobutyloxy)-6-phenyl-5-pyrimidinyl]-2-isopropyl-3(2H)-pyridazinone] | 161 to 162.5 |
| CNc1ncc(-c2ccc(=O)[nH]n2)c(-c2ccccc2)n1 [Example 8, 6-[2-(Methylamino)-4-phenyl-5-pyrimidinyl]-3(2H)-pyridazinone] | > 255 |
| CC(C)n1nc(-c2c(-c3ccccc3)nc(N)nc2N2CCCCC2)ccc1=O [Example 126, 6-[2-Amino-4-phenyl-6-(1-piperidinyl)-5-pyrimidinyl]-2-isopropyl-3(2H)-pyridazinone] | 221 to 223 |
| CC(C)n1nc(-c2c(NCC(N)=O)nc(N)nc2-c2ccccc2)ccc1=O [Example 118, 2-{(2-amino-5-(1-isopropyl-6-oxo-1,6-dihydro-3-pyridazinyl)-6-phenyl-4-pyrimidinyl]amino}acetamide] | 235 to 237.5 |
| CC(C)n1nc(-c2c(NCc3cccnc3)nc(N)nc2-c2ccccc2)ccc1=O [Example 122, 6-{2-Amino-4-phenyl-6-[(3-pyridinylmethyl)amino]-5-pyrimidinyl}-2-isopropyl-3(2H)-pyridazinone] | 215 to 216.5 |
| CC(C)n1nc(-c2c(OCC(=O)c3ccccc3)nc(N)nc2-c2ccccc2)ccc1=O [Example 161, 6-[2-Amino-4-(2-oxo-2-phenylethoxy)-6-phenyl-5-pyrimidinyl]-2-isopropyl-3(2H)-pyridazinone] | 182 to 183 |
| Cc1nc(Nc2nc(N)nc(-c3ccccc3)c2-c2ccc(=O)n(C(C)C)n2)sc1C [Example 134, 6-{2-Amino-4-[(4,5-dimethyl-1,3-thiazol-2-yl)amino]-6-phenyl-5-pyrimidinyl}-2-isopropyl-3(2H)-pyridazinone] | 256 to 257.5 |
| Cn1nc(-c2c(Nc3ccccc3)nc(N)nc2-c2ccccc2)ccc1=O [Example 147, 6-(2-Amino-4-anilino-6-phenyl-5-pyrimidinyl)-2-methyl-3(2H)-pyridazinone] | 252 to 254 |
| CC(C)n1nc(-c2c(Nc3ccccc3)nc(N)nc2-c2ccc(F)cc2)ccc1=O [Example 158, 6-[2-Amino-4-anilino-6-(4-fluorophenyl)-5-pyrimidinyl]-2-isopropyl-3(2H)-pyridazinone] | > 250 |
| Nc1ncc(-c2ccc(=O)[nH]n2)c(-c2ccco2)n1 [Example 34, 6-[2-Amino-4-(2-furyl)-5-pyrimidinyl]-3(2H)-pyridazinone] | 262 to 268 |
| CC(C)n1nc(-c2cnc(NC(=O)c3ccccc3)nc2-c2ccccc2)ccc1=O [Example 169, N-[5-(1-isopropyl-6-oxo-1,6-dihydro-3-pyridazinyl)-4-phenyl-2-pyrimidinyl]benzamide] | 116 to 120 |
| Nc1ncc(-c2ccc(=O)n(Cc3ccccc3)n2)c(-c2ccccc2)n1 [Example 6, 6-(2-Amino-4-phenyl-5-pyrimidinyl)-2-benzyl-3(2H)-pyridazinone] | 229 to 230 |
